Source: ChEMBL document CHEMBL5518236, “Discovery of Clinical Candidate AZD5462, a Selective Oral Allosteric RXFP1 Agonist for Treatment of Heart Failure” (J Med Chem, 2024)

How the values were obtained:
[1] = Metabolic stability in human hepatocytes assessed as unbound intrinsic clearance measured per 10^6 viable cells/ml at 1 uM measured upto 120 mins by LC-MS/MS analysis; format: ADME, cell-based, Hepatocyte; conditions: 2 h
[2] = Octanol/water partition coefficient, logD of the compound at pH 7.4 by shake flask method; format: physicochemical
[3] = Oral bioavailability in Han Wistar rat at 1.8 micromol/kg by LC-MS/MS analysis; format: ADME, organism-based; conditions: in vivo, 1.8 µmol/kg
[4] = Metabolic stability in rat hepatocytes assessed as unbound intrinsic clearance measured per 10^6 viable cells/ml at 1 uM measured upto 120 mins by LC-MS/MS analysis; format: ADME, cell-based, Hepatocyte; conditions: 2 h
[5] = Volume of distribution at steady state in Han Wistar rat at 0.90 micromol/kg, iv by LC-MS/MS analysis; format: ADME, organism-based; conditions: in vivo, dose 0.9 µmol/kg, read-out: Vdss
[6] = Clearance in Han Wistar rat at 0.90 micromol/kg, iv by LC-MS/MS analysis; format: ADME, organism-based; conditions: in vivo, dose 0.9 µmol/kg
Relaxin receptor 1 [7] = target: T1, Relaxin receptor 1 (Rattus norvegicus, UniProt Q6R6I6); assay: Agonist activity at rat RXFP1 expressed in CHO-K1 cells assessed as increase in cAMP level measured after 2 hrs by HTRF cAMP assay; format: functional, cell-based
T1 sequence (Q6R6I6 whole entry): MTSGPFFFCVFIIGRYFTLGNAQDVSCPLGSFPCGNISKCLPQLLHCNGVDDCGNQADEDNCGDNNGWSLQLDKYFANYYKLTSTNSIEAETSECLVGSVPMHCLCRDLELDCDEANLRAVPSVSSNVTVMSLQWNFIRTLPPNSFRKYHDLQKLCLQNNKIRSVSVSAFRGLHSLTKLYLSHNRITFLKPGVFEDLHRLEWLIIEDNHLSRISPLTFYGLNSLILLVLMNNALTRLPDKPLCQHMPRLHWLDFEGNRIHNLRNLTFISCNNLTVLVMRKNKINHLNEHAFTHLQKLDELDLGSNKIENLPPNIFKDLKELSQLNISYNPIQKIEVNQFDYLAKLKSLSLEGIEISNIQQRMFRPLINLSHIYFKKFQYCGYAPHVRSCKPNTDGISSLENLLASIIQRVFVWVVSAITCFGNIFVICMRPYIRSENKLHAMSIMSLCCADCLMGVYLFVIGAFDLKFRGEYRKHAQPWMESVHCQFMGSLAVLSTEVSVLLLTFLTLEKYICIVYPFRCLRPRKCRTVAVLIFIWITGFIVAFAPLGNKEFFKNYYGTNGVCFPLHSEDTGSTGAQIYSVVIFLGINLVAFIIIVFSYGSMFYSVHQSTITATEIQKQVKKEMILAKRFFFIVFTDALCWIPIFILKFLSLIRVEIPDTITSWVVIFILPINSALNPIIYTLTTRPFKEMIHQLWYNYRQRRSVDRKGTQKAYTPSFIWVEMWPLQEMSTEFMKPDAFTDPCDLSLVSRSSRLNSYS

[8] = Metabolic stability in human hepatocytes assessed as intrinsic clearance measured per 10^6 viable cells/ml at 1 uM measured upto 120 mins by LC-MS/MS analysis; format: ADME, cell-based, Hepatocyte; conditions: read-out: CLH
[9] = Metabolic stability in human liver microsomes assessed as unbound intrinsic clearance at 1 uM measured upto 30 mins by LC-MS/MS analysis; format: ADME, Microsome; conditions: 0.5 h
[10] = Half life in Han Wistar rat at 0.90 micromol/kg, iv by LC-MS/MS analysis; format: ADME, organism-based; conditions: in vivo, dose 0.9 µmol/kg
[11] = Protein binding in rat plasma assessed as fraction unbound at 5 uM measured after 18 hrs by LC-MS/MS analysis; format: ADME, cell-free; conditions: read-out: PPB
[12] = Metabolic stability in human liver microsomes assessed as intrinsic clearance at 1 uM measured upto 30 mins by LC-MS/MS analysis; format: ADME, Microsome; conditions: read-out: CLH
[13] = Protein binding in human plasma assessed as fraction unbound at 5 uM measured after 18 hrs by LC-MS/MS analysis; format: ADME, cell-free; conditions: read-out: PPB
Relaxin receptor 1 [14] = target: T2, Relaxin receptor 1 (Homo sapiens, UniProt Q9HBX9); assay: Agonist activity at human RXFP1 expressed in CHO-K1 cells assessed as dynamic mass redistribution (DMR) measured after 60 mins pretreated with UBO-QIC by G-protein coupling DMR assay
T2 sequence (Q9HBX9 whole entry): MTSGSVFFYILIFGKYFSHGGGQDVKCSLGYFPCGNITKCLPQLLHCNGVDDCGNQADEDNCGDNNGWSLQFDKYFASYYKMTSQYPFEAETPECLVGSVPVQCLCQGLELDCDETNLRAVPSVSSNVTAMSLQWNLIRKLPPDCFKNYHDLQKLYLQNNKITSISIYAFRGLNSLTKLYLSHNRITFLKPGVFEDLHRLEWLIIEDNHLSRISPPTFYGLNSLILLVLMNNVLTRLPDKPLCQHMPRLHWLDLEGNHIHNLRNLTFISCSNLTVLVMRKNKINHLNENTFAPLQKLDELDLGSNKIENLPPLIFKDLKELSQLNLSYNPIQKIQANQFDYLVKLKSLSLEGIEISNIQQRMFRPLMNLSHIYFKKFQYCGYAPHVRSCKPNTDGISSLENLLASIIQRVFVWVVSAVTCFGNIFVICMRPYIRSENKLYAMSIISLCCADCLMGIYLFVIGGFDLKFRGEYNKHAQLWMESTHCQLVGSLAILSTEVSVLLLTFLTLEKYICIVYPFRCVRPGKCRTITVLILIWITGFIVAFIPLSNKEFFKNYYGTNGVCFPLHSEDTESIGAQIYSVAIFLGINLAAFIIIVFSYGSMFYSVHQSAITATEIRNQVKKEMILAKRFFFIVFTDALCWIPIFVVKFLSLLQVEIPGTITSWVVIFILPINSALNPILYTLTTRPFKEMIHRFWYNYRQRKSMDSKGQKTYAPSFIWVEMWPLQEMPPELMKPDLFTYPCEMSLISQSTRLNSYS

Relaxin receptor 1 [15] = target: T2, Relaxin receptor 1; assay: Agonist activity at human RXFP1 expressed in HEK293 cells assessed as cAMP production measured after 15 mins by BRET sensor assay
Relaxin receptor 1 [16] = target: T2, Relaxin receptor 1; assay: Agonist activity at human RXFP1 expressed in CHO-K1 cells assessed as dynamic mass redistribution (DMR) measured after 60 mins pretreated with PTX by G-protein coupling DMR assay
Relaxin receptor 1 [17] = target: T2, Relaxin receptor 1; assay: Agonist activity at human RXFP1 expressed in HEK293 cells assessed as ERK phosphorylation measured after 24 hrs by HTRF assay
Relaxin receptor 1 [18] = target: T2, Relaxin receptor 1; assay: Agonist activity at human RXFP1 expressed in HEK293 cells co-expressing G-alphas assessed as cAMP production measured after 15 mins by BRET sensor assay
Relaxin receptor 1 [19] = target: T2, Relaxin receptor 1; assay: Agonist activity at human RXFP1 expressed in CHO-K1 cells assessed as dynamic mass redistribution (DMR) measured after 60 mins by G-protein coupling DMR assay
Relaxin receptor 1 [20] = target: T2, Relaxin receptor 1; assay: Agonist activity at human RXFP1 expressed in HEK293 cells coexpressing GRK2 assessed as beta-arrestin internalization by BRET assay relative to control
Relaxin receptor 1 [21] = target: T2, Relaxin receptor 1; assay: Agonist activity at human RXFP1 expressed in HEK293 cells co-expressing G-alphaz assessed as cAMP production measured after 15 mins by BRET sensor assay
[22] = Apparent permeability across apical to basolateral side in human Caco-2 cells at pH 7.4 by LC-MS/MS analysis; format: ADME, cell-based; conditions: Caco-2, pH 7.4
[23] = Efflux ratio of apparent permeability from basolateral side to apical side over apical side to basolateral side in human Caco-2 cells at pH 7.4 by LC-MS/MS analysis; conditions: Caco-2, pH 7.4
Relaxin receptor 1 [24] = target: T2, Relaxin receptor 1
Description: Agonist activity at human RXFP1 expressed in CHO cells assessed as increase in cAMP level measured after 2 hrs by HTRF cAMP assay

Relaxin receptor 1 [25] = target: T3, Relaxin receptor 1 (Mus musculus, UniProt Q6R6I7)
T3 sequence (Q6R6I7 whole entry): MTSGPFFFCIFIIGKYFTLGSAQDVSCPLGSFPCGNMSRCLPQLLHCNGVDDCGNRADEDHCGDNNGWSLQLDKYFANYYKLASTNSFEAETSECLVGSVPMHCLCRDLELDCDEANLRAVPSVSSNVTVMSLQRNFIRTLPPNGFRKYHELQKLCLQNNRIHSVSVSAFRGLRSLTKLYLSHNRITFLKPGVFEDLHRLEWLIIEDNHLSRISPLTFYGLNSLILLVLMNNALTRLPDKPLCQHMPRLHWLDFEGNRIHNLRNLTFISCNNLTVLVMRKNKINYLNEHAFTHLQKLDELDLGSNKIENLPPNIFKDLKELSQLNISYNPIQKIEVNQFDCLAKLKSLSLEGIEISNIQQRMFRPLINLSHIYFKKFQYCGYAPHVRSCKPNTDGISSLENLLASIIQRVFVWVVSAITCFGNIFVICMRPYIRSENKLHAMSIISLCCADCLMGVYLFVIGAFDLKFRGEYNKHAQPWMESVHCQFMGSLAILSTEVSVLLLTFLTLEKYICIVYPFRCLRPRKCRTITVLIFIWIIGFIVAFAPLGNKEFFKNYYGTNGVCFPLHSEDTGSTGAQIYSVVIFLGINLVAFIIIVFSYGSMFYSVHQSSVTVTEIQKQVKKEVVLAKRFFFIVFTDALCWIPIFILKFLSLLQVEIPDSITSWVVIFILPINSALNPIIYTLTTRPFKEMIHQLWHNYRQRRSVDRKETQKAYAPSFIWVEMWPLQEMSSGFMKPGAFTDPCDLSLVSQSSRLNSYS
Description: Agonist activity at mouse RXFP1 expressed in CHO-K1 cells assessed as increase in cAMP level measured after 2 hrs by HTRF cAMP assay

[26] = Half life in Han Wistar rat at 0.96 micromol/kg, iv by LC-MS/MS analysis; format: ADME, organism-based; conditions: in vivo, dose 0.96 µmol/kg
[27] = Volume of distribution at steady state in Han Wistar rat at 0.96 micromol/kg, iv by LC-MS/MS analysis; format: ADME, organism-based; conditions: in vivo, dose 0.96 µmol/kg, read-out: Vdss
[28] = Oral bioavailability in Han Wistar rat at 1.9 micromol/kg by LC-MS/MS analysis; format: ADME, organism-based; conditions: in vivo, 1.9 µmol/kg
[29] = Clearance in Han Wistar rat at 0.96 micromol/kg, iv by LC-MS/MS analysis; format: ADME, organism-based; conditions: in vivo, dose 0.96 µmol/kg
[30] = Half life in Han Wistar rat at 0.93 micromol/kg, iv by LC-MS/MS analysis; format: ADME, organism-based; conditions: in vivo, dose 0.93 µmol/kg
[31] = Oral bioavailability in Han Wistar rat at 9.3 micromol/kg by LC-MS/MS analysis; format: ADME, organism-based; conditions: in vivo, 9.3 µmol/kg
[32] = Volume of distribution at steady state in Han Wistar rat at 0.93 micromol/kg, iv by LC-MS/MS analysis; format: ADME, organism-based; conditions: in vivo, dose 0.93 µmol/kg, read-out: Vdss
[33] = Clearance in Han Wistar rat at 0.93 micromol/kg, iv by LC-MS/MS analysis; format: ADME, organism-based; conditions: in vivo, dose 0.93 µmol/kg

Compound | CL free [1] | logD [2] | CL free [4] | EC50 (Relaxin receptor 1 [7]) | hepatocyte CLint at 1 µM [8] | CL free [9] | fraction unbound at 18 h, 5 µM [11] | microsomal CLint at 1 µM [12] | EC50 (Relaxin receptor 1 [24]) | EC50 (Relaxin receptor 1 [25]) | further results
COc1cc(C#N)c(O[C@H]2CC[C@@](C)(C(=O)O)CC2)cc1C(=O)N[C@@H]1[C@H]2CC[C@H](C2)[C@@H]1C(=O)NC12CC(F)(C1)C2 | 2.6 µL/min | 2.2 | 11 µL/min | 10500 nM | 1.5 µL/min/1e6 cells | 4.7 µL/min/mg | 0.101 | 4 µL/min/mg |  |  | bioavailability [3]: 17%; Vd [5]: 0.96 L/kg; clearance [6]: 59 mL/min/kg; half-life [10]: 1.4 h
COc1cc(F)c(O[C@H]2CC[C@@](C)(C(=O)O)CC2)cc1C(=O)N[C@@H]1[C@H]2CC[C@H](C2)[C@@H]1C(=O)Nc1ccc(F)c(S(F)(F)(F)(F)F)c1 | 2.1 10^3uL/min | 4.9 |  |  | 21 µL/min/1e6 cells | 3.39 10^3uL/min/mg |  | 61 µL/min/mg |  |  | fraction unbound at 18 h, 5 µM [13]: < 0.0023; EC50 (Relaxin receptor 1 [14]): 0.0251 nM; EC50 (Relaxin receptor 1 [15]): 0.0316 nM; EC50 (Relaxin receptor 1 [16]): 0.02 nM; EC50 (Relaxin receptor 1 [17]): 3.16 nM; EC50 (Relaxin receptor 1 [18]): 0.316 nM; EC50 (Relaxin receptor 1 [19]): 0.0251 nM; EC50 (Relaxin receptor 1 [20]): 1.51 nM; EC50 (Relaxin receptor 1 [21]): 2.51 nM
COc1cc(F)c(O[C@H]2CC[C@@](C)(C(=O)O)CC2)cc1C(=O)N[C@@H]1[C@H]2CC[C@H](C2)[C@@H]1C(=O)NCC(C)(C)C | 4.3 µL/min | 3 |  |  | 2.7 µL/min/1e6 cells | 20 µL/min/mg |  | 14 µL/min/mg | 39.8 nM |  | Papp A→B [22]: 81 ×10⁻⁶ cm/s; efflux ratio [23]: 6.8
COc1cc(F)c(O[C@H]2CC[C@@H](C(=O)O)CC2)cc1C(=O)N[C@@H]1[C@H]2CC[C@H](C2)[C@@H]1C(=O)NCC(C)(C)C | 3.4 µL/min | 2.3 | 133 µL/min |  | 2.2 µL/min/1e6 cells | 8.5 µL/min/mg | 0.079 | 6.8 µL/min/mg | 1000 nM | > 39800 nM | half-life [26]: 1.8 h; Vd [27]: 0.6 L/kg; bioavailability [28]: 5.6%; clearance [29]: 64 mL/min/kg
COc1cc(C#N)c(O[C@H]2CC[C@@](C)(C(=O)O)CC2)cc1C(=O)N[C@@H]1[C@H]2CC[C@H](C2)[C@@H]1C(=O)NCC(C)(C)C | < 2 µL/min | 2.3 | 15 µL/min | 15800 nM | < 1.3 µL/min/1e6 cells | < 4.3 µL/min/mg | 0.078 | < 3 µL/min/mg |  | 1260 nM | half-life [30]: 2 h; bioavailability [31]: 61%; Vd [32]: 0.55 L/kg; clearance [33]: 41 mL/min/kg
